Source: article PMC7580834, “Inhibition mechanism of naphthylphenylamine derivatives acting on the CDC25B dual phosphatase and analysis of the molecular processes involved in the high cytotoxicity exerted by one selected derivative in melanoma cells” (Journal of Enzyme Inhibition and Medicinal Chemistry, 2020)

What was measured:
Format in all cases: binding
CDC25B = molecular target: T1, CDC25B (Homo sapiens, UniProt P30305); experiment: Intrinsic fluorescence quenching of recombinant CDC25B catalytic domain (Stern-Volmer)
T1 sequence (P30305 377-551 isoform P30305-2 limits assumed): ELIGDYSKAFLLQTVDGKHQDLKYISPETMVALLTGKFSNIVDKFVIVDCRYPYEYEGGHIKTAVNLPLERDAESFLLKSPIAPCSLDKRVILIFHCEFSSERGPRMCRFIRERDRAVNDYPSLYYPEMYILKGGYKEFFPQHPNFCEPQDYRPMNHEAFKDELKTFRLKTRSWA
Method: (§1) Fluorescence spectra were recorded at 20 °C using a computer-assisted Cary Eclipse spectrofluorimeter (Varian, Palo Alto, CA, USA) equipped with an electronic temperature controller. The excitation wavelength was set at 280 nm and the excitation and emission slits were set at 10 and 20 nm, respectively. A 500 µL final volume of a 0.2 µM solution of CDC25B or CDC25B-C473S dissolved in 20 mM Tris•HCl, pH 7.8, 0.5 mM TCEP was directly prepared in the fluorimetric cuvette in the absence or in the presence of OMFP and/or some NPA derivatives. Serial pre-dilutions of the NPA derivatives or OMFP at increasing concentration were prepared in DMSO or methanol, respectively. Alongside, a convenient amount of the enzyme pre-dilution was prepared just before its usage for the experiment and stored on ice. When the combined effect of NPA derivative and OMFP was investigated, two enzyme pre-dilutions were prepared in the absence or in the presence of 5 µM OMFP. In order to evaluate the specific effect produced by any addition of solvent/ligand on the intrinsic fluorescence of the enzyme, 495 µL of the enzyme pre-dilution were placed in the fluorimetric cuvette and the relative spectrum was recorded; after the addition of 5 µL of each pre-dilution of solvent/ligand and fast mixing, the spectrum was recorded again. This procedure, repeated for each experimental point, allowed a normalisation of the specific effects produced by solvent/ligands. Furthermore, a correction was also applied for the little inner-filter effect due to the absorbance at 280 nm of the NPA derivative used at different concentrations; on the other hand, no correction was necessary for OMFP. All spectra, recorded at a scan speed of 120 nm/min, were normalised and corrected.

OMFP-bound CDC25B-C473S [1] = molecular target: T2, OMFP-bound CDC25B-C473S (Homo sapiens, UniProt P30305, C487S); experiment: Intrinsic fluorescence quenching of CDC25B-C473S in the presence of 5 µM OMFP (Stern-Volmer); conditions: reciprocal of KSV; presence of 5 µM OMFP; read-out: K′D of the complex, OMFP-bound CDC25B-C473S•inhibitor
T2 sequence (P30305 370-580 C487S): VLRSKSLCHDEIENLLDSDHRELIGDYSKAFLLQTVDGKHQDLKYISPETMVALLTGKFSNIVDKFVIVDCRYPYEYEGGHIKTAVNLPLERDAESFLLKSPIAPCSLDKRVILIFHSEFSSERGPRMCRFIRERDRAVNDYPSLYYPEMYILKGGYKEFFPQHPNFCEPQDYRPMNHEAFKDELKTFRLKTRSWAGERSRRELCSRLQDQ
From the text: (§2) The mutant form of CDC25B, carrying the C473S replacement (CDC25B-C473S), was obtained through site-directed mutagenesis of the CDC25B catalytic segment cloned in pET28a-CDC25B-cd. To this aim, the QuikChange site-directed mutagenesis kit (Stratagene, La Jolla, CA, USA) and the forward and reverse primers for C473S replacement (5′d-[…]-3′ and 5′d-[…]-3′) were used. Positive clones were obtained, and the nucleotide sequencing of the mutagenised segment excluded the presence of undesired mutations. The new vector was called pET28a-CDC25B-C473S-cd. The expression of the new vector and the purification of the recombinant form of CDC25B-C473S catalytic domain were carried out as previously reported for wild-type CDC25B catalytic domain[18], and similar yields were obtained. As expected, the mutant enzyme was unable to hydrolyse the synthetic substrate OMFP, when its activity was checked with the fluorimetric assay method previously described.
as §1

OMFP-bound CDC25B-C473S [2] = experiment: as above
From the text: as §2, §1

CCOC(=O)c1cccc(Nc2cc(OC)cc3ccccc23)c1 [4a]
KSV (Stern-Volmer constant) (CDC25B; 0.2 µM wild-type CDC25B, emission 357 nm, 20 °C, no OMFP): 0.010 µM⁻¹ | Kd (CDC25B; reciprocal of KSV, inhibitor concentration leading to 50% quenching of CDC25B emission, read-out: K′D of the complex, Free CDC25B•inhibitor): > 50 µM | Kd (OMFP-bound CDC25B-C473S [1]): 32 µM | KSV (Stern-Volmer constant) (OMFP-bound CDC25B-C473S [2]; 0.2 µM CDC25B-C473S, in the presence of 5 µM OMFP): 0.031 µM⁻¹ | K′D/Ki ratio (OMFP-bound CDC25B-C473S [2]; K′D of OMFP-bound CDC25B-C473S•inhibitor over Ki): 3.8
